Patent US10669284B2, “Fused thiazolopyrimidine derivatives as MNKS inhibitors” (LIFEARC, priority 2015, dated 2020)

Experiments:
CHEK1 = biological target: T1, CHEK1 (Homo sapiens, UniProt O14757); assay: Kinase selectivity screen CHEK1; conditions: read-out: % inhibition of CHEK1
T1 sequence (O14757 1-476): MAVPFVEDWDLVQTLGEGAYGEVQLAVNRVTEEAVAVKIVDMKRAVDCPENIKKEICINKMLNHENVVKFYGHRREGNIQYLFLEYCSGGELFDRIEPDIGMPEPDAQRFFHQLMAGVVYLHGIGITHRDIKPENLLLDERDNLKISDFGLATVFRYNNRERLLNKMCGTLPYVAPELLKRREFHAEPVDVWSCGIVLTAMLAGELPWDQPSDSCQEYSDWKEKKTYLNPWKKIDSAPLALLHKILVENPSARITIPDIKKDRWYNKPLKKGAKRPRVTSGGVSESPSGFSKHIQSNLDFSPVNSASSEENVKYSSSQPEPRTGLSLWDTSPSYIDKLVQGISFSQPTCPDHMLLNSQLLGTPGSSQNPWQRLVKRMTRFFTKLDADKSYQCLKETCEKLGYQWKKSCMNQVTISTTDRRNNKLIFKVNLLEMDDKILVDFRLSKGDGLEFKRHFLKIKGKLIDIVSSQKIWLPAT

DYRK2 = biological target: T2, DYRK2 (Homo sapiens, UniProt Q92630); assay: Kinase selectivity screen DYRK2; conditions: read-out: % inhibition of DYRK2
T2 sequence (Q92630 1-601): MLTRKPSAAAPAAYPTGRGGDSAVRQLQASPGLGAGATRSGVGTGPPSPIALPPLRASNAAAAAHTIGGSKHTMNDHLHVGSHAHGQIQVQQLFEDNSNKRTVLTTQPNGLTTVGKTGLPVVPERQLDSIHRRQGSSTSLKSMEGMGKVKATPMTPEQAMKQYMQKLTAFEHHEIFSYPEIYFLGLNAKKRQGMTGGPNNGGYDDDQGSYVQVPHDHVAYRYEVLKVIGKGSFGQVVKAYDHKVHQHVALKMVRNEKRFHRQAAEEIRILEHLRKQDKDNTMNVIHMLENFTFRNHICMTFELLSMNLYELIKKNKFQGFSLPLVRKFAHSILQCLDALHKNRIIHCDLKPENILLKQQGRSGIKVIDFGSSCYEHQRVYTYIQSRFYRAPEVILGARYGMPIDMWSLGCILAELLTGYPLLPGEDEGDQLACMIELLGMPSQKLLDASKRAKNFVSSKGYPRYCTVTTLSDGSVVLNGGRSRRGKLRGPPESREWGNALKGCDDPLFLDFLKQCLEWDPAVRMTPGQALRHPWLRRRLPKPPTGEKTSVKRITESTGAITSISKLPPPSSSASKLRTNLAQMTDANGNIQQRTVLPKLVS

CDK6/CCND3 = CDK6/CCND3 (Homo sapiens, UniProt Q00534); assay: Kinase selectivity screen CDK6/CCND3; conditions: read-out: % inhibition of CDK6/CCND3
Sequence of CDK6/CCND3 (Q00534 whole entry, species assumed): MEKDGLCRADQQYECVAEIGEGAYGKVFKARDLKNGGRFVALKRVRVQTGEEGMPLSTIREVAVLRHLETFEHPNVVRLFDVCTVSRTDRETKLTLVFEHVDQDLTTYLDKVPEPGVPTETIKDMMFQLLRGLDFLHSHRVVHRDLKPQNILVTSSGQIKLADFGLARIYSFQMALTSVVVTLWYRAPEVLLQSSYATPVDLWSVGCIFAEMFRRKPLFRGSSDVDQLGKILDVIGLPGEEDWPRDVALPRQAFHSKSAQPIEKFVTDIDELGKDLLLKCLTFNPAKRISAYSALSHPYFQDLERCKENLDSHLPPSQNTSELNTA
Sequence of CDK6/CCND3 (P30281 whole entry partner, species assumed): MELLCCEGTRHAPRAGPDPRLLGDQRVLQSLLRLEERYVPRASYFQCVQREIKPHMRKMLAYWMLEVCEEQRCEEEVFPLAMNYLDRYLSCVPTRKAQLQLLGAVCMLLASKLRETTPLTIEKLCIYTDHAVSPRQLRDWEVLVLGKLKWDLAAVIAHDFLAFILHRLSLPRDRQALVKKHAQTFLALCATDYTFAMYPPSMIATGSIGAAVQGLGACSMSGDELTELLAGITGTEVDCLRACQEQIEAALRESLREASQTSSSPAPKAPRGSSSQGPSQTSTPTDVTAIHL

MAP2K1 = MAP2K1 (Homo sapiens, UniProt Q02750); assay: Kinase selectivity screen MAP2K1; conditions: read-out: % inhibition of MAP2K1
Sequence of MAP2K1 (Q02750 whole entry, species assumed): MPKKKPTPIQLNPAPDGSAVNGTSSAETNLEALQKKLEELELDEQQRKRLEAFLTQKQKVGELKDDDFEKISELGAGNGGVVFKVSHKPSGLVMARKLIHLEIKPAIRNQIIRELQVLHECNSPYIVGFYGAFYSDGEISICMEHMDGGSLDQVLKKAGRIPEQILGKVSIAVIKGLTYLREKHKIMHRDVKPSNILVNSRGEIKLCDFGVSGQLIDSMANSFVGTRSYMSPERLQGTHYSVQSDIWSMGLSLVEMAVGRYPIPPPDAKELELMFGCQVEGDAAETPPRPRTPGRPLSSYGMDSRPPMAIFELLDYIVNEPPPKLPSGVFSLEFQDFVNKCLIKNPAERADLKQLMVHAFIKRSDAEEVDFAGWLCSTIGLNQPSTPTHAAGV

BMX = biological target: T3, BMX (Homo sapiens, UniProt P51813); assay: Kinase selectivity screen BMX; conditions: read-out: % inhibition of BMX
T3 sequence (P51813 1-675): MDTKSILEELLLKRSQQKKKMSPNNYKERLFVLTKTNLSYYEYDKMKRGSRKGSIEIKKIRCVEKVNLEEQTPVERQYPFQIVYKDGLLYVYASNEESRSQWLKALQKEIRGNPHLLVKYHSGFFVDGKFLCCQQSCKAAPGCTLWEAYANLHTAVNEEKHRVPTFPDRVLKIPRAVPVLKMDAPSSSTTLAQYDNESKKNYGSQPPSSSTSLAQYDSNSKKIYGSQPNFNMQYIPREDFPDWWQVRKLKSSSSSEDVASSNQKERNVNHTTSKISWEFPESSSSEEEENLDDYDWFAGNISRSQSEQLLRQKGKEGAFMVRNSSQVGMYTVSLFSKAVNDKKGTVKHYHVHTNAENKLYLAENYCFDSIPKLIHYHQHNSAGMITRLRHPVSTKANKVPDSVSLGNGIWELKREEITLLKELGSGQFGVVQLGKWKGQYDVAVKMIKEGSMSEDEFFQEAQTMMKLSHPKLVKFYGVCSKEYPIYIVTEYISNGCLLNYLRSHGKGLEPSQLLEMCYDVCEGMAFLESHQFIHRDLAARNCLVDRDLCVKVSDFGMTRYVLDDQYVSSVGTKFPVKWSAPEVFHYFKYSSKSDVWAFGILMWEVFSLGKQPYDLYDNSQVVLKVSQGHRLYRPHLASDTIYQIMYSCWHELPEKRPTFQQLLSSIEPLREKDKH

EPHB4 = biological target: T4, EPHB4 (Homo sapiens, UniProt P54760); assay: Kinase selectivity screen EPHB4; conditions: read-out: % inhibition of EPHB4
T4 sequence (P54760 16-987): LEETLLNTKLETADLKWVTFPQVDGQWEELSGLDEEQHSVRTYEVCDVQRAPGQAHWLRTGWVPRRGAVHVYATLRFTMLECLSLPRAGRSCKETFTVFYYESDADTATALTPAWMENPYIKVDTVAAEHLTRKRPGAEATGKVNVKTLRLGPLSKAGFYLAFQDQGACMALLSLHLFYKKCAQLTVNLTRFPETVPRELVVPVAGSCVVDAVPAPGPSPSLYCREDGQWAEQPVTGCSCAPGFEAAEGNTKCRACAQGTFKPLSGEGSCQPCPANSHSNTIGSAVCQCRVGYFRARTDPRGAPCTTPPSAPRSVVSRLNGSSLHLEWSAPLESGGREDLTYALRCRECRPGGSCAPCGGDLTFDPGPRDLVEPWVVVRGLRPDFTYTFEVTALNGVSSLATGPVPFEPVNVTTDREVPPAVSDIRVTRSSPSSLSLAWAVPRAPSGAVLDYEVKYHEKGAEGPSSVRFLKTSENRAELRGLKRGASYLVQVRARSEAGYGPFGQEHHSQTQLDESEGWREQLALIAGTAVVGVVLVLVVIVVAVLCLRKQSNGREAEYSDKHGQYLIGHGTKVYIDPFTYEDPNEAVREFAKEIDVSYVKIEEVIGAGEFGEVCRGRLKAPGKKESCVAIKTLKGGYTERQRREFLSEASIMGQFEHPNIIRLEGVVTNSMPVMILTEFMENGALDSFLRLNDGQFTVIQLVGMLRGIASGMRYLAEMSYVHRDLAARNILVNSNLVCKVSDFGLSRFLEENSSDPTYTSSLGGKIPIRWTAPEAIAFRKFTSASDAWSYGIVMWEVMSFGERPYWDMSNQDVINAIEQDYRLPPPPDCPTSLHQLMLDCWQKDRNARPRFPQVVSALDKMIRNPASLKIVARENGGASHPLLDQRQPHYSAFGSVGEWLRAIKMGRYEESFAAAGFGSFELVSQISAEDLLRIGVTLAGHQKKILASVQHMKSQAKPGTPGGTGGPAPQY

| Structure (SMILES) | inhibition at 1 µM (CHEK1) [%] | inhibition at 1 µM (DYRK2) [%] | inhibition at 1 µM (CDK6/CCND3) [%] | inhibition at 1 µM (MAP2K1) [%] | inhibition at 1 µM (BMX) [%] | inhibition at 1 µM (EPHB4) [%] |
| --- | --- | --- | --- | --- | --- | --- |
| O=C(NCC1CCNCC1)c1nc2c(N3CCc4cc(F)ccc43)ncnc2s1 [Example 58, 7-(5-fluoroindolin-1-yl)-N-(4-piperidylmethyl)thiazolo[5,4-d]pyrimidine-2-carboxamide] | 6 | 21 | 0 | 7 | 0 | 0 |
| CN(C)CCCNC(=O)c1nc2c(N3CCc4cc(F)ccc43)ncnc2s1 [Example 64, N-[3-(dimethylamino)propyl]-7-(5-fluoroindolin-1-yl)thiazolo[5,4-d]pyrimidine-2-carboxamide] | 35 | 44 | 9 | 5 | 6 | 8 |
| CC(C)Oc1cc(F)ccc1Nc1ncnc2sc(C(=O)NCC3CCNCC3)nc12 [Example 10, 7-(4-fluoro-2-isopropoxy-anilino)-N-(4-piperidylmethyl)thiazolo[5,4-d]pyrimidine-2-carboxamide] | 0 | 7 | 3 | 0 | 0 | 4 |
